Reference: PubChem BioAssay AID1259407 (Chemical Carcinogenesis Research Information System (CCRIS), 2018)
Active and inactive are the calls of the source. The rule behind the calls is not given here.

System: CCRIS mutagenicity, Ames/micronucleus/aberration tests
Assay: CCRIS mutagenicity studies
[1] = Test System: AMES SALMONELLA TYPHIMURIUM, Strain/Indicator: TA100, Metabolic Activation: NONE, Method: STANDARD PLATE
[2] = Test System: AMES SALMONELLA TYPHIMURIUM, Strain/Indicator: TA1535, Metabolic Activation: NONE, Method: STANDARD PLATE
[3] = Test System: AMES SALMONELLA TYPHIMURIUM, Strain/Indicator: TA98, Metabolic Activation: NONE, Method: PREINCUBATION
[4] = Test System: AMES SALMONELLA TYPHIMURIUM, Strain/Indicator: TA100, Metabolic Activation: NONE, Method: PREINCUBATION
[5] = Test System: AMES SALMONELLA TYPHIMURIUM, Strain/Indicator: TA98, Metabolic Activation: NONE, Method: STANDARD PLATE
[6] = Test System: AMES SALMONELLA TYPHIMURIUM, Strain/Indicator: TA1537, Metabolic Activation: NONE, Method: STANDARD PLATE
[7] = Test System: AMES SALMONELLA TYPHIMURIUM, Strain/Indicator: TA98, Metabolic Activation: RAT, LIVER, S-9, AROCLOR 1254, Method: STANDARD PLATE
[8] = Test System: AMES SALMONELLA TYPHIMURIUM, Strain/Indicator: TA100, Metabolic Activation: RAT, LIVER, S-9, AROCLOR 1254, Method: STANDARD PLATE
[9] = Test System: AMES SALMONELLA TYPHIMURIUM, Strain/Indicator: TA1535, Metabolic Activation: NONE, Method: PREINCUBATION

Measured: mutagenic call

OC1c2cccnc2C2OC2C1O (configuration not stated)
inactive: [1] inactive; negative | Test System: AMES SALMONELLA TYPHIMURIUM, Strain/Indicator: TA100, Metabolic Activation: RAT, LIVER, S-9, AROCLOR 1254 (10 OR 20%), Method: STANDARD PLATE inactive; negative

CN(Cc1ccc(Br)cc1)N=O
inactive: [2] inactive; negative
active: Test System: AMES SALMONELLA TYPHIMURIUM, Strain/Indicator: TA1535, Metabolic Activation: HAMSTER, LIVER, S-9, AROCLOR 1254, Method: STANDARD PLATE active; positive

CCn1c(N)nc2c3ncc(C)nc3ccc21
active: Test System: AMES SALMONELLA TYPHIMURIUM, Strain/Indicator: TA98, Metabolic Activation: RAT, LIVER, S-9, AROCLOR 1254, Method: PREINCUBATION active; positive

O=Cc1c([N+](=O)[O-])cccc1[N+](=O)[O-]
inactive: Test System: AMES SALMONELLA TYPHIMURIUM, Strain/Indicator: TA98, Metabolic Activation: RAT, LIVER, S-9, PHENOBARBITAL AND 5,6-BENZOFLAVONE, Method: PREINCUBATION inactive; negative
active: [3] active; positive | Test System: AMES SALMONELLA TYPHIMURIUM, Strain/Indicator: TA100(1,8-DNP6), Metabolic Activation: NONE, Method: SUSPENSION/PLATE active; positive | Test System: AMES SALMONELLA TYPHIMURIUM, Strain/Indicator: TA100(NR), Metabolic Activation: NONE, Method: SUSPENSION/PLATE active; positive | [4] active; positive | Test System: AMES SALMONELLA TYPHIMURIUM, Strain/Indicator: TA100, Metabolic Activation: NONE, Method: SUSPENSION/PLATE active; positive | Test System: AMES SALMONELLA TYPHIMURIUM, Strain/Indicator: TA100, Metabolic Activation: RAT, LIVER, S-9, PHENOBARBITAL AND 5,6-BENZOFLAVONE, Method: PREINCUBATION active; positive

O=NN(CCCl)C(=O)NCCO
active: [2] active; positive

O=Nc1ccc2ccc3cc4ccccc4c4ccc1c2c34
active: Test System: AMES SALMONELLA TYPHIMURIUM, Strain/Indicator: TA98 (1,8-DNP6), Metabolic Activation: NONE, Method: STANDARD PLATE active; positive | Test System: AMES SALMONELLA TYPHIMURIUM, Strain/Indicator: TA98 (NR), Metabolic Activation: NONE, Method: STANDARD PLATE active; positive | [5] active; positive | Test System: CHINESE HAMSTER OVARY, Strain/Indicator: CHO-K1-BH4 (HGPRT), Metabolic Activation: NONE active; positive

O=C(CCl)Nc1snc2ccccc12
active: Test System: AMES SALMONELLA TYPHIMURIUM, Strain/Indicator: TA98, Metabolic Activation: S-9, Method: STANDARD PLATE active; positive | Test System: AMES SALMONELLA TYPHIMURIUM, Strain/Indicator: TA100, Metabolic Activation: S-9, Method: STANDARD PLATE active; positive | [6] active; positive | Test System: AMES SALMONELLA TYPHIMURIUM, Strain/Indicator: TA1537, Metabolic Activation: S-9, Method: STANDARD PLATE active; positive
inactive: [5] inactive; negative | [1] inactive; negative | [2] inactive; negative | Test System: AMES SALMONELLA TYPHIMURIUM, Strain/Indicator: TA1535, Metabolic Activation: S-9, Method: STANDARD PLATE inactive; negative

CCCCCCCCCCCCCCCC(=O)OC/C=C(C)/C=C/C=C(C)/C=C/C1=C(C)CCCC1(C)C
active: End Point: IN VIVO CHROMOSOMAL ABERRATIONS, Test System: BONE MARROW CELLS, Species: RAT, Strain/Sex: WISTAR/MALE, FEMALE, Route: ORAL (GAVAGE) active; positive (structural changes; abnormal metaphase) | End Point: IN VIVO CHROMOSOMAL ABERRATIONS, Test System: BONE MARROW, Species: RAT, Strain/Sex: WISTAR/MALE, FEMALE, Route: GAVAGE active; positive (structural changes)
inactive: End Point: IN VIVO MICRONUCLEUS, Test System: BONE MARROW POLYCHROMATIC ERYTHROCYTES, Species: MOUSE, Strain/Sex: DDY/MALE, Route: IP inactive; negative | [5] inactive; negative | [7] inactive; negative | [1] inactive; negative | [8] inactive; negative | [2] inactive; negative | Test System: AMES SALMONELLA TYPHIMURIUM, Strain/Indicator: TA1535, Metabolic Activation: RAT, LIVER, S-9, AROCLOR 1254, Method: STANDARD PLATE inactive; negative | [6] inactive; negative | Test System: AMES SALMONELLA TYPHIMURIUM, Strain/Indicator: TA1537, Metabolic Activation: RAT, LIVER, S-9, AROCLOR 1254, Method: STANDARD PLATE inactive; negative | Test System: AMES SALMONELLA TYPHIMURIUM, Strain/Indicator: TA1538, Metabolic Activation: NONE, Method: STANDARD PLATE inactive; negative | Test System: AMES SALMONELLA TYPHIMURIUM, Strain/Indicator: TA1538, Metabolic Activation: RAT, LIVER, S-9, AROCLOR 1254, Method: STANDARD PLATE inactive; negative | Test System: E. COLI, Strain/Indicator: WP2, Metabolic Activation: NONE, Method: STANDARD PLATE inactive; negative | Test System: E. COLI, Strain/Indicator: WP2, Metabolic Activation: RAT, LIVER, S-9, AROCLOR 1254, Method: STANDARD PLATE inactive; negative

CSC(C)(C)C(=O)N[C@@H](CS)C(=O)O
inactive: [3] inactive; negative | [4] inactive; negative | [9] inactive; negative | Test System: AMES SALMONELLA TYPHIMURIUM, Strain/Indicator: TA1537, Metabolic Activation: NONE, Method: PREINCUBATION inactive; negative | Test System: AMES SALMONELLA TYPHIMURIUM, Strain/Indicator: TA1538, Metabolic Activation: NONE, Method: PREINCUBATION inactive; negative | Test System: E. COLI, Strain/Indicator: WP2, Metabolic Activation: NONE, Method: PREINCUBATION inactive; negative | Test System: E. COLI, Strain/Indicator: WP2 UVRA, Metabolic Activation: NONE, Method: PREINCUBATION inactive; negative

Cc1ccc(N=Nc2c(O)c(C(=O)O)cc3ccccc23)c(S(=O)(=O)O)c1
inactive: [5] inactive; negative | Test System: AMES SALMONELLA TYPHIMURIUM, Strain/Indicator: TA98, Metabolic Activation: RAT LIVER S-9, AROCLOR 1254, Method: STANDARD PLATE inactive; negative | [1] inactive; negative | Test System: AMES SALMONELLA TYPHIMURIUM, Strain/Indicator: TA100, Metabolic Activation: RAT LIVER S-9, AROCLOR 1254, Method: STANDARD PLATE inactive; negative

CN1CCc2cc3c(c4c2[C@H]1[C@H](O)c1ccccc1-4)OCO3
active: Test System: AMES SALMONELLA TYPHIMURIUM, Strain/Indicator: TA98, Metabolic Activation: RAT, LIVER, S-9, PHENOBARBITAL AND BETA-NAPHTHOFLAVONE, Method: PREINCUBATION active; positive | Test System: AMES SALMONELLA TYPHIMURIUM, Strain/Indicator: TA100, Metabolic Activation: RAT, LIVER, S-9, PHENOBARBITAL AND BETA-NAPHTHOFLAVONE, Method: PREINCUBATION active; positive

O=NN1CCOC(O)C1 (configuration not stated)
active: [4] active; positive | [9] active; positive | Test System: AMES SALMONELLA TYPHIMURIUM, Strain/Indicator: TA1535, Metabolic Activation: RAT, LIVER, S-9, AROCLOR 1254, Method: PREINCUBATION active; positive

c1ccc2c(c1)CC[C@@H]1CCC[C@@H]3O[C@]213
inactive: [5] inactive; negative | [1] inactive; negative

O=C(/C=C/c1ccc(Br)cc1)c1ccccc1
inactive: [5] inactive; negative | [7] inactive; negative | [1] inactive; negative | [8] inactive; negative
